# Data: patent US20240293404A1, “SALT AND CRYSTAL FORMS OF AN EPIDERMAL GROWTH FACTOR RECEPTOR INHIBITOR” (Blueprint Medicines Corporation, priority 2021, published 2024)
# What was measured:
# [1] = Dynamic Vapor Sorption (DVS); assay type: physicochemical; details: between 2 and 95% relative humidity at 25° C.
# Description: DVS was performed using a DVS Intrinsic 1. The sample (5-25 mg) was loaded into a sample pan, suspended from a microbalance and exposed to a humidified stream of nitrogen gas. The sample was held for a minimum of 5 min at each level and only progressed to the next humidity level if there was <0.002% change in weight between measurements (interval: 60 s) or 60 min had elapsed. The following program was used: • 1—Equilibration at 50% RH • 2—50% to 2%. (50%, 40%, 30%, 20%, 10%, and 2%) • 3—2% to 95% (2%, 10%, 20%, 30%, 40%, 50%, 60%, 70%, 80%, 90%, 95%) • 4—95% to 2% (95%, 80%, 70%, 60%, 50%, 40%, 30%, 20%, 10%, 2%) • 5—2% to 50% (2%, 10%, 20%, 30%, 40%, 50%)
# EGFR mutant NSCLC = details: NSCLC patients; cited from earlier work
SMILES,DVS mass change [1] [wt. %],time within which resistance mediated by exon 20 C797 mutation (often C797S) usually develops (EGFR mutant NSCLC) [months]
CO[C@@H]1CCN(c2nccc(Nc3cc4c(C(C)C)ccc(N5C[C@H](CS(C)(=O)=O)[C@H]5C)c4cn3)n2)C[C@@H]1F [1:0.5 Compound (I) Semi-Succinate],7.1,–
CO[C@@H]1CCN(c2nccc(Nc3cc4c(C(C)C)ccc(N5C[C@H](CS(C)(=O)=O)[C@H]5C)c4cn3)n2)C[C@@H]1F [Compound (I) Freebase Form B],2.1,–
C=CC(=O)Nc1cc(Nc2nccc(-c3cn(C)c4ccccc34)n2)c(OC)cc1N(C)CCN(C)C [osimertinib],–,≤ 10
